In the supplement of paper PMC7017272:
± gives the standard deviation of the averaged measurements.

How the values were obtained:
Conditions in all cases: treatment time: 3 days
[1] = tested on: UT-SCC-44; experiment: maximal % inhibition of viability relative to DMSO; higher = stronger effect
Method: (§1)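 HNSCC cell lines (500 cells/well, 384-well) were cultured on plastic, on top of (2D) or embedded (3D) in Matrigel or human leiomyoma matrix Myogel (500 ug/mL; Myogel 3D mixed with rat collagen I). Cells were treated for 3 days with 5 ten-fold concentrations of each drug, and viability was read by CellTiter-Glo. Viability was normalised to DMSO and benzethonium chloride controls and fitted with the FIMM DSRT pipeline to give IC50 (nM), maximal % inhibition and DSS. Suffixes _1/_2/_3 are replicates. Only inhibition-mode (IC50) fits are kept.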

[2] = tested on: UT-SCC-73; experiment: as above
Method: as §1

[3] = tested on: UT-SCC-81; experiment: as above
Method: as §1

[4] = tested on: UT-SCC-8; experiment: as above
Method: as §1

[5] = tested on: UT-SCC-106A; experiment: drug sensitivity score (DSS); higher = more sensitive; extreme values may be limits of the assay
Summary of the method: (§2)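 HPV-negative HNSCC cell lines were plated at 500 cells/well in 384-well plates, either on plastic, on wells coated with Matrigel or Myogel (500 µg/mL), or embedded in Matrigel or Myogel plus rat collagen I. Each compound was tested at five 10-fold concentrations over 3 days. Viability was measured by CellTiter-Glo 2.0 luminescence, and IC50, maximal inhibition and drug sensitivity score came from percent-inhibition dose–response curves fitted in the FIMM pipeline after normalisation to vehicle (0.1% DMSO) and cell-killing control wells.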

[6] = tested on: UT-SCC-14; experiment: as above
Summary of the method: as §2

[7] = tested on: UT-SCC-42A; experiment: as above
Summary of the method: as §2

[8] = tested on: UT-SCC-42B; experiment: as above
Summary of the method: as §2

[9] = tested on: UT-SCC-24A; experiment: relative IC50 (midpoint of the fitted curve; maximal inhibition may be below 50%); higher = less potent
Method: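 HNSCC cell lines (500 cells/well, 384-well) were cultured on plastic, on top of (2D) or embedded (3D) in Matrigel or human leiomyoma matrix Myogel (500 ug/mL; Myogel 3D mixed with rat collagen I). Cells were treated for 3 days with 5 ten-fold concentrations of each drug, and viability was read by CellTiter-Glo. Viability was normalised to DMSO (0% inhibition) and 100 uM benzethonium chloride (100% inhibition) controls and fitted with the FIMM DSRT pipeline to give IC50 (nM), maximal % inhibition and the drug sensitivity score (DSS). Suffixes _1/_2/_3 on drug names are replicates.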

[10] = culture condition: on top of Myogel
[11] = culture condition: plastic 2D (no matrix)
[12] = culture condition: embedded in Matrigel
[13] = culture condition: embedded in Myogel + collagen I
[14] = culture condition: on top of Matrigel

relative IC50 [9, 12]: 577 nM
relative IC50 [9, 13]: 436 nM
relative IC50 [9, 14]: 483 nM
relative IC50 [9, 10]: 818 nM
relative IC50 [9, 11]: 416 nM
Structure (SMILES): Cc1c(CN2CCN(C(=O)[C@H](C)O)CC2)sc2c(N3CCOCC3)nc(-c3cnc(N)nc3)nc12 [Apitolisib]
maximal % inhibition of viability [1, 10]: 65.9 ± 2%
maximal % inhibition of viability [1, 11]: 63.5 ± 5%
maximal % inhibition of viability [2, 12]: 84.2 ± 2.6%
maximal % inhibition of viability [2, 13]: 76.2 ± 4.4%
maximal % inhibition of viability [2, 14]: 82.4 ± 0.53%
maximal % inhibition of viability [2, 10]: 79.5 ± 2.6%
maximal % inhibition of viability [2, 11]: 81.8 ± 2.3%
maximal % inhibition of viability [3, 12]: 93.5 ± 1.6%
maximal % inhibition of viability [3, 13]: 81.1 ± 4.5%
maximal % inhibition of viability [3, 14]: 88.93 ± 0.85%
maximal % inhibition of viability [3, 10]: 79.9 ± 1.5%
maximal % inhibition of viability [3, 11]: 82.8 ± 3.6%
maximal % inhibition of viability [4, 12]: 97.57 ± 0.12%
maximal % inhibition of viability [4, 13]: 87.6 ± 4.4%
maximal % inhibition of viability [4, 14]: 94.8 ± 1.1%
maximal % inhibition of viability [4, 10]: 90.4 ± 1.6%
maximal % inhibition of viability [4, 11]: 94 ± 1.2%
drug sensitivity score [5, 12]: 11.7 ± 0.66 DSS
drug sensitivity score [5, 13]: 6.97 ± 1 DSS
drug sensitivity score [5, 14]: 10.8 ± 0.35 DSS
drug sensitivity score [5, 10]: 6.23 ± 0.6 DSS
drug sensitivity score [5, 11]: 9.27 ± 1 DSS
drug sensitivity score [6, 12]: 8.77 ± 1.1 DSS
drug sensitivity score [6, 13]: 6.9 ± 1.9 DSS
drug sensitivity score [6, 14]: 7.97 ± 1.6 DSS
drug sensitivity score [6, 10]: 6.43 ± 1.1 DSS
drug sensitivity score [6, 11]: 6.47 ± 1.7 DSS
drug sensitivity score [7, 12]: 7.43 ± 0.45 DSS
drug sensitivity score [7, 13]: 8.1 ± 1.3 DSS
drug sensitivity score [7, 14]: 8.03 ± 1.3 DSS
drug sensitivity score [7, 10]: 7.07 ± 0.4 DSS
drug sensitivity score [7, 11]: 8.8 ± 1.1 DSS
drug sensitivity score [8, 12]: 7.13 ± 2.4 DSS
drug sensitivity score [8, 14]: 5.47 ± 0.81 DSS
drug sensitivity score [8, 10]: 4.4 ± 1 DSS
drug sensitivity score [8, 11]: 4.43 ± 0.93 DSS
